Measured values reported in PMC12264794, “Homoleptic complexes of titanium(IV) fused with O^N^O Schiff base derivatives: design, BSA–DNA interaction, molecular docking, DFT and cytotoxicity” (RSC Advances, 2025).
Read-outs that look alike come from different tables or passages of the source.

Experiments:
[1] = system: CT-DNA; test: Competitive EtBr displacement fluorescence quenching on CT-DNA; format: binding, calf; conditions: for KSV, Stern–Volmer quenching constant: EB-CT-DNA adduct
Procedure: Using fluorescence spectroscopy, the competitive binding relationship between metal complexes and CT-DNA bound to ethidium bromide was investigated. EtBr and CT-DNA solutions at a 5 mM concentration were made in PBS buffer (pH 7.4) for the fluorescence studies. After that, the reference solutions were allowed to settle at room temperature for an hour and the CT-DNA reference solution (200 μM) was coupled to ethidium bromide (50 μM) and allowed to rest for the specified period. The excitation and emission wavelengths were set at 460 nm and incremental addition of Ti(IV) complex concentrations ranging from 0 to 80 μM were used to titrate constant concentrations of EtBr-CT-DNA solution.[43,44]
A known volume of 200 μM CT-DNA (5 Mm) and 50 μM EB was mixed with an aqueous PBS buffer to make an EB-CT-DNA solution. The mixture was then kept at room temperature for 20 minutes before the complexes were titrated. Analysis of the competitive interaction mechanisms of the complexes towards CT-DNA involved the incremental addition of Ti(IV) complexes to the mixture of EB-CT-DNA. The modification in the emission spectral profile of EB-DNA indicated the impact of the addition of the complexes and there was a noticeable decrease in inflorescence intensity when the Ti(IV) complexes (0–100 μM) were added to the EB-CT-DNA system (Fig. 4(a), ESI Fig. S63 ^† and Table 2).
The linear plot of I0/I versus [complex] […] KSV is the Stern–Volmer quenching constant, and [Q] is the quencher concentration.6 Kapp × [Complex]50 = KEtBr × [EtBr]For the Ti(IV) complexes, Kapp (the apparent binding constant) was calculated using eqn (6), where KEtBr (1.0 × 10^7 M^−1) is the DNA binding constant of EB, [EtBr] is the concentration of EB = 10 μM and [Complex]50 denotes the complex concentration at which the fluorescence intensity of the DNA-EB adduct is reduced to 50%. […] Furthermore, the number of binding sites (n) and the equilibrium binding constant K were ascertained by using the Scatchard eqn (7):7 Log(I0 − I/I) = log K + n log[Q]where I0 is the fluorescence intensity of CT-DNA + EtBr in the absence of complex and I points to the fluorescence intensities of CT-DNA in the presence of a complex of concentration [Q]. The significant quenching in fluorescence intensity of all metal complexes (Table 2), the Stern–Volmer (ESI Fig. S64 ^†) and Scatchard plots (Fig. 4(c), ESI Fig. S65 ^† and Table 2), and other computations performed, supported the strong groove-binding interaction mode with CT-DNA.

[2] = system: CT-DNA; test: Agarose gel electrophoresis, CT-DNA cleavage; format: biochemical, calf; conditions: complex at 3, 1.5 and 0.75 mM
Procedure: The interaction and effectiveness of the Ti(IV) complex on CT-DNA were investigated using the agarose gel electrophoresis technique. This was accomplished by incubating the reaction mixtures separately, each of which contained 20 μL of CT-DNA and 20 μL of titanium complexes in PBS buffer solution, at 310 K for one hour. The tracking […] dye (1 μL) and all of the prepared solutions (5 μL) were then combined and applied to the wells of a 1% agarose gel containing 1 mM ethidium bromide that was prepared well in advance. Then the reaction mixture of complexes and CT-DNA was loaded in the wells separately using 0.25% […] dye. The electrophoresis mobility experiment was then carried out in an EDTA-PBS buffer for 60 minutes at a constant electrical voltage of 100 V until the dye reached 50% of the gel distribution area. In order to evaluate the degree of DNA binding capacity of the Ti(IV) complexes, the resultant bands were finally captured on a camera using the AXYGEN digital camera Gel Documentation System under UV light.[49–51]
There are two types of cleavage of nucleic acid chains: enzymatic and non-enzymatic. Either the oxidative cleavage of deoxyribose residues or the hydrolysis of phosphodiester links, known as hydrolytic cleavage, can result in non-enzymatic cleavage. Strong Lewis acidic metal complexes with transition metals are the main source of hydrolytic cleavage. The hydrolysis of the phosphate backbone of the nucleic acid is facilitated by a metal–phosphate intermediate. In order to understand the catalytic mechanisms of natural nucleases and to develop medications that target nucleic acids, it is crucial to design and synthesize metal complexes that can hydrolytically cleave the phosphodiester link. Agarose gel electrophoresis was used to test the capacity of the complex to cleave CT-DNA.

[3] = Stability studies by UV-vis in DMSO:H2O and aqueous GSH medium; format: physicochemical; conditions: DMSO : H2O (1 : 9, v/v) and aqueous GSH medium, over 72 hours
Procedure: Stability studies were carried out using DMSO : H2O medium (1 : 9, v/v) and aqueous GSH medium to perform stability tests on the freshly synthesized Ti(IV) complexes over 72 hours.

[4] = n-Octanol/water partition coefficient, shake flask method; format: physicochemical; conditions: partition coefficient of n-octanol/water
Procedure: Drugs were measured for oral bioavailability and cellular accumulation using their lipophilicity. This can be stated as the log P value of the n-octanol/water partition coefficient, which is an essential prerequisite for many in silico medicinal chemistry approaches. The n-octanol/water partition coefficient (log Po/w), where Po/w = the octanol/water partition coefficient, was analyzed using the shake flask method. The experimental log Po/w values of these complexes were discovered to be between 0.12 and 0.87 (ESI Fig. S60 ^† and Table 1).

[5] = from eqn (6), complex concentration at 50% fluorescence

Row | SMILES | Kapp, apparent DNA binding constant [1] | KSV, Stern–Volmer quenching constant [1] | Kapp, apparent DNA binding constant [1, 5] | DNA cleavage activity [2] | Stability [3] | Log Po/w [4] | KSV, Stern–Volmer quenching constant ([1]; text value)
1 | Brc1ccc2c(c1)C=NN=C(c1ccncc1)[O][Ti]1([O]C(c3ccncc3)=NN=Cc3cc(Br)ccc3[O]1)[O]2 (centres unmarked) [Ti-6-IBr] | 4.24e+06 M⁻¹ | 16000 M⁻¹ | 4.24e+06 M⁻¹ | comparatively higher DNA binding cleavage in higher concentration | small degree of hyperchromism | 0.15 | –
2 | COc1cccc(C=NN=C([O-])c2ccncc2)c1[O-].COc1cccc(C=NN=C([O-])c2ccncc2)c1[O-].[Ti+4] [Ti-3-IO] | – | 16000 M⁻¹ | 3.4e+06 M⁻¹ | higher DNA cleavage even at the lowest concentration | small degree of hyperchromism | 0.13 | –
3 | [O-]C(=NN=Cc1c([O-])ccc2ccccc12)c1ccncc1.[O-]C(=NN=Cc1c([O-])ccc2ccccc12)c1ccncc1.[Ti+4] [Ti-2-IN] | – | 19000 M⁻¹ | 3.56e+06 M⁻¹ | less cleavage activity | did not change much | 0.78 | –
4 | [O-]C(=NN=Cc1ccccc1[O-])c1ccncc1.[O-]C(=NN=Cc1ccccc1[O-])c1ccncc1.[Ti+4] [Ti-1-IS] | – | 6000 M⁻¹ | 3.03e+06 M⁻¹ | less cleavage activity | did not change much | 0.87 | –
5 | [O-]C(=NN=Cc1cc(Cl)ccc1[O-])c1ccncc1.[O-]C(=NN=Cc1cc(Cl)ccc1[O-])c1ccncc1.[Ti+4] [Ti-5-ICl] | – | 26000 M⁻¹ | 3.43e+06 M⁻¹ | comparatively higher DNA binding cleavage in higher concentration | remained constant | 0.31 | 26000 M⁻¹
6 | [O-]C(=NN=Cc1cc(F)ccc1[O-])c1ccncc1.[O-]C(=NN=Cc1cc(F)ccc1[O-])c1ccncc1.[Ti+4] [Ti-4-IF] | – | 14000 M⁻¹ | 3.41e+06 M⁻¹ | higher DNA cleavage even at the lowest concentration | small degree of hyperchromism | 0.12 | –
